Measurements taken from PubChem BioAssay AID330 (DTP/NCI, 2004).
Several values for one entry are separate records, joined by “and”; a condition that tells them apart may be missing. Equal values may be shown once. Toxic doses and inconclusive results are not listed.

Test system: P388 leukemia ip, CD2F1 mice, survival T/C
Assay: NCI In Vivo Anticancer Drug Screen. Data for tumor model P388 Leukemia (intraperitoneal) in CD2F1 (CDF1) mice
Details: endpoint: median survival time, higher = longer survival
Procedure: The antitumor activity of compounds was measured in mice bearing transplantable tumors. Survival or tumor size were measured and the results are expressed as the measurement made in the treated group (T) divided by the measurement made in the vehicle treated control group (C). The tumor model used in this assay is P388 Leukemia (intraperitoneal) in CD2F1 (CDF1) mice

[1] = dose: 50.0 mg/kg/injection, schedule: Q01DX009 (ip), vehicle: saline with Tween-80
[2] = dose: 100.0 mg/kg/injection, schedule: Q01DX009 (ip), vehicle: saline with Tween-80
[3] = dose: 200.0 mg/kg/injection, schedule: Q01DX009 (ip), vehicle: saline with Tween-80
[4] = dose: 50.0 mg/kg/injection, schedule: Q01DX009 (ip), vehicle: Klucel (hydroxypropylcellulose) (HPC)
[5] = dose: 100.0 mg/kg/injection, schedule: Q01DX009 (ip), vehicle: Klucel (hydroxypropylcellulose) (HPC)
[6] = dose: 200.0 mg/kg/injection, schedule: Q01DX009 (ip), vehicle: Klucel (hydroxypropylcellulose) (HPC)
[7] = dose: 50.0 mg/kg/injection, schedule: Q01DX005 (ip), vehicle: Klucel (hydroxypropylcellulose) (HPC)
[8] = dose: 60.0 mg/kg/injection, schedule: Q01DX005 (ip), vehicle: saline with Tween-80
[9] = dose: 120.0 mg/kg/injection, schedule: Q01DX005 (ip), vehicle: saline with Tween-80
[10] = dose: 240.0 mg/kg/injection, schedule: Q01DX005 (ip), vehicle: saline with Tween-80
[11] = dose: 50.0 mg/kg/injection, schedule: Q01DX005 (ip), vehicle: saline with Tween-80
[12] = dose: 100.0 mg/kg/injection, schedule: Q01DX005 (ip), vehicle: saline with Tween-80

Cc1cccc(C2=Nc3ccccc3N3CC=CC=C23)c1
T/C [1]: 110 % of control
T/C [2]: 97 % of control
T/C [3]: 92 % of control

COC(C(=O)C(O)C(C)O)C1Cc2cc3cc(OC4CC(OC5CC(O)C(O)C(C)O5)C(O)C(C)O4)c(C)c(O)c3c(O)c2C(=O)C1OC1CC(OC2CC(O)C(OC3CC(C)(O)C(O)C(C)O3)C(C)O2)C(O)C(C)O1 (stereo unspecified)
T/C (dose: 0.06 mg/kg/injection, schedule: Q01DX009 (ip), vehicle: saline): 122 % of control
T/C (dose: 0.13 mg/kg/injection, schedule: Q01DX001 (ip), vehicle: saline): 104 % of control
T/C (dose: 0.13 mg/kg/injection, schedule: Q01DX009 (ip), vehicle: saline): 106 % of control
T/C (dose: 0.25 mg/kg/injection, schedule: Q01DX001 (ip), vehicle: saline): 103 % of control
T/C (dose: 0.25 mg/kg/injection, schedule: Q01DX009 (ip), vehicle: saline): 109 % of control
T/C (dose: 0.5 mg/kg/injection, schedule: Q01DX001 (ip), vehicle: saline): 109 % of control
T/C (dose: 0.5 mg/kg/injection, schedule: Q04DX003 (ip), vehicle: saline): 116 % of control
T/C (dose: 2.0 mg/kg/injection, schedule: Q01DX009 (ip), vehicle: saline): 151 % of control

OCc1nc2ccccc2[nH]1
T/C (dose: 25.0 mg/kg/injection, schedule: Q01DX009 (ip), vehicle: Klucel (hydroxypropylcellulose) (HPC)): 96 % of control
T/C [4]: 97 % of control
T/C [5]: 96 % of control
T/C [6]: 114 % of control

Nc1ccc(F)cc1S
T/C [2]: 118 % of control

O=C(Oc1ccccc1)OC1CCCN(C(=O)Oc2ccccc2)C1 (stereo unspecified)
T/C [4]: 93 % of control
T/C [5]: 93 % of control
T/C [6]: 93 % of control

N#C/C(=C\c1ccc2c(c1)OCO2)C(=O)N/N=C/c1ccc2c(c1)OCO2
T/C (dose: 50.0 mg/kg/injection, schedule: Q01DX009 (ip), vehicle: saline): 101 % of control
T/C (dose: 100.0 mg/kg/injection, schedule: Q01DX009 (ip), vehicle: saline): 98 % of control
T/C (dose: 200.0 mg/kg/injection, schedule: Q01DX009 (ip), vehicle: saline): 94 % of control

Cc1cc(C)c2cc(=O)oc-2c(C)c1
T/C (dose: 100.0 mg/kg/injection, schedule: Q01DX001 (ip), vehicle: Klucel (hydroxypropylcellulose) (HPC)): 100 % of control
T/C (dose: 200.0 mg/kg/injection, schedule: Q01DX001 (ip), vehicle: Klucel (hydroxypropylcellulose) (HPC)): 103 % of control
T/C (dose: 400.0 mg/kg/injection, schedule: Q01DX001 (ip), vehicle: Klucel (hydroxypropylcellulose) (HPC)): 100 % of control

CN(C)CCCOc1cccc(NC2=C(Cl)C(=O)C(Nc3cccc(OCCCN(C)C)c3)=C(Cl)C2=O)c1
T/C (dose: 6.25 mg/kg/injection, schedule: Q01DX005 (ip), vehicle: Klucel (hydroxypropylcellulose) (HPC)): 99 % of control
T/C (dose: 12.5 mg/kg/injection, schedule: Q01DX005 (ip), vehicle: Klucel (hydroxypropylcellulose) (HPC)): 100 % of control
T/C (dose: 25.0 mg/kg/injection, schedule: Q01DX005 (ip), vehicle: Klucel (hydroxypropylcellulose) (HPC)): 109 % of control
T/C [7]: 100 % of control

C[Si](C)(C)N1CCOC1=O
T/C [8]: 109 % of control
T/C [9]: 103 % of control
T/C [10]: 108 % of control

CC(=O)Nc1nc(N(C)C)nc(N(C)C)n1
T/C (dose: 50.0 mg/kg/injection, schedule: Q04DX002 (ip), vehicle: saline): 109 % of control
T/C (dose: 100.0 mg/kg/injection, schedule: Q04DX002 (ip), vehicle: saline): 107 % of control
T/C (dose: 200.0 mg/kg/injection, schedule: Q04DX002 (ip), vehicle: saline): 114 % of control

N#Cc1n[nH]c2nc(=S)sc(N)c12
T/C (dose: 100.0 mg/kg/injection, schedule: Q04DX002 (ip), vehicle: water): 103 % of control
T/C (dose: 200.0 mg/kg/injection, schedule: Q04DX002 (ip), vehicle: water): 90 % of control
T/C (dose: 400.0 mg/kg/injection, schedule: Q04DX002 (ip), vehicle: water): 97 % of control

N#CC(C(=O)C(=O)Nc1cccc(C(F)(F)F)c1)c1ccc(Cl)cc1Cl (stereo unspecified)
T/C [8]: 94 % of control
T/C [9]: 91 % of control
T/C [10]: 92 % of control

O=c1c(Cl)cc(Cl)cn1S(=O)(=O)c1ccc([N+](=O)[O-])cc1
T/C (dose: 25.0 mg/kg/injection, schedule: Q01DX009 (ip), vehicle: saline with Tween-80): 106 % of control
T/C [1]: 105 % of control
T/C [2]: 100 % of control and 104 % of control
T/C [3]: 104 % of control and 89 % of control
T/C (dose: 400.0 mg/kg/injection, schedule: Q01DX009 (ip), vehicle: saline with Tween-80): 89 % of control

CN(CCO)CC(O)Cn1cnc2c(N)ncnc21 (stereo unspecified)
T/C (dose: 60.0 mg/kg/injection, schedule: Q01DX005 (ip), vehicle: saline): 95 % of control
T/C (dose: 120.0 mg/kg/injection, schedule: Q01DX005 (ip), vehicle: saline): 97 % of control
T/C (dose: 240.0 mg/kg/injection, schedule: Q01DX005 (ip), vehicle: saline): 100 % of control

c1csc(CSc2ncnc3nc[nH]c23)c1
T/C (dose: 100.0 mg/kg/injection, schedule: Q04DX003 (ip), vehicle: saline with Tween-80): 100 % of control
T/C (dose: 200.0 mg/kg/injection, schedule: Q04DX003 (ip), vehicle: saline with Tween-80): 100 % of control
T/C (dose: 264.0 mg/kg/injection, schedule: Q04DX003 (ip), vehicle: saline with Tween-80): 100 % of control
T/C (dose: 400.0 mg/kg/injection, schedule: Q04DX003 (ip), vehicle: saline with Tween-80): 109 % of control

OC1OCC(COc2ccc(Cl)cc2)OC1O (stereo unspecified)
T/C [8]: 108 % of control and 118 % of control
T/C [9]: 111 % of control
T/C [10]: 123 % of control

N=c1nc(N)nc2n1N=C(c1ccc(Cl)cc1)CS2
T/C (dose: 25.0 mg/kg/injection, schedule: Q01DX005 (ip), vehicle: saline with Tween-80): 102 % of control
T/C [11]: 92 % of control
T/C [12]: 90 % of control

CCOC(=O)[C]1([Hg][CH3])N=NC(C(=O)OC)=C1C(=O)OC (stereo unspecified)
T/C (dose: 1.56 mg/kg/injection, schedule: Q01DX009 (ip), vehicle: saline): 90 % of control
T/C (dose: 3.12 mg/kg/injection, schedule: Q01DX009 (ip), vehicle: saline): 93 % of control
T/C (dose: 6.25 mg/kg/injection, schedule: Q01DX009 (ip), vehicle: saline): 90 % of control
T/C (dose: 12.5 mg/kg/injection, schedule: Q01DX009 (ip), vehicle: saline): 93 % of control

CC1(C)CC(OP(=[Se])(OC2CC(C)(C)N(O)C(C)(C)C2)OC2CC(C)(C)N(O)C(C)(C)C2)CC(C)(C)N1O
T/C (dose: 12.5 mg/kg/injection, schedule: Q01DX001 (ip), vehicle: Klucel (hydroxypropylcellulose) (HPC)): 97 % of control
T/C (dose: 25.0 mg/kg/injection, schedule: Q01DX001 (ip), vehicle: Klucel (hydroxypropylcellulose) (HPC)): 102 % of control
T/C (dose: 50.0 mg/kg/injection, schedule: Q01DX001 (ip), vehicle: Klucel (hydroxypropylcellulose) (HPC)): 104 % of control

CC(=O)C1C(=O)C(=O)N(c2ccc(F)cc2)C1=O (stereo unspecified)
T/C (dose: 100.0 mg/kg/injection, schedule: Q01DX001 (ip), vehicle: saline with Tween-80): 103 % of control
T/C (dose: 200.0 mg/kg/injection, schedule: Q01DX001 (ip), vehicle: saline with Tween-80): 99 % of control
T/C (dose: 400.0 mg/kg/injection, schedule: Q01DX001 (ip), vehicle: saline with Tween-80): 98 % of control

CCOC(=O)c1cnc2cc(C(F)(F)F)ccc2c1N=[N+]=[N-]
T/C [8]: 99 % of control
T/C [9]: 96 % of control
T/C [10]: 96 % of control

CC(=O)O[C@@H]1C(=O)C=C(C)[C@@H]2[C@@H](OC(=O)C=C(C)C)[C@H]3OC(=O)C[C@H]4[C@@H](C)[C@@H](O)[C@]5(O)OC[C@]34[C@H]5[C@@]12C
T/C (dose: 0.5 mg/kg/injection, schedule: Q01DX009 (ip), vehicle: distilled water + Tween-80): 118 % of control
T/C (dose: 1.0 mg/kg/injection, schedule: Q01DX009 (ip), vehicle: distilled water + Tween-80): 121 % of control
T/C (dose: 10.0 mg/kg/injection, schedule: Q01DX009 (ip), vehicle: distilled water + Tween-80): 177 % of control

O=C1CCCCCCCCCCC1[N+](=O)[O-] (stereo unspecified)
T/C [11]: 95 % of control
T/C [12]: 92 % of control
T/C (dose: 200.0 mg/kg/injection, schedule: Q01DX005 (ip), vehicle: saline with Tween-80): 93 % of control

CP(=O)(c1ccccc1)c1ccccc1OCCCOCCCOc1ccccc1P(C)(=O)c1ccccc1 (stereo unspecified)
T/C [7]: 99 % of control
T/C (dose: 100.0 mg/kg/injection, schedule: Q01DX005 (ip), vehicle: Klucel (hydroxypropylcellulose) (HPC)): 99 % of control
T/C (dose: 200.0 mg/kg/injection, schedule: Q01DX005 (ip), vehicle: Klucel (hydroxypropylcellulose) (HPC)): 94 % of control
